Test results from patent US10207991B2, “Isoindoline compositions and methods for treating neurodegenerative disease” (priority 2014, dated 2019).

Test: Mouse liver microsome (MLM) stability
Assay type: in vitro ADME
Method: A first pharmacokinetic study was performed in microsomes of mice mouse liver microsomes, MLM) by a commercial contract research organization. The studies were performed according to Obach, R. S et al. (1997) J. Pharmacol. Exp. Ther., 283: 46-58, which is incorporated herein by reference.

Mouse liver microsomes, MLM t½ [min]	Compound
5	C[C@H](CCc1ccc(O)c(OC(C)(C)C)c1)N1Cc2c(F)ccc(F)c2C1 [60A]
8	C[C@H](CCc1ccc(O)c(OC(C)(C)C)c1)N1Cc2cccc(F)c2C1 [60B]
11	COc1cc(CC[C@@H](C)N2Cc3ccc(Cl)cc3C2)ccc1O [compound 1]
16	COc1cc(CC[C@@H](C)N2Cc3cccc(F)c3C2)ccc1O [compound 8]
10	COc1cc(CCC(C)N2Cc3ccc4ccccc4c3C2)ccc1O.Cl (centres unmarked) [compound 17]
4	CC(C)Oc1cc(CC[C@@H](C)N2Cc3cccc(F)c3C2)ccc1O [compound 26]
4	CC(C)Oc1cc(CCC(C)(C)N2Cc3cccc(F)c3C2)ccc1O [compound 28]
6	CC(C)Oc1cc(CCC(C)(C)N2Cc3cc4c(cc3C2)OCO4)ccc1O [compound 29]
9	CC(C)(CCc1ccc(F)cc1)N1Cc2cccc(F)c2C1 [compound 33]
46	COc1cc2c(cc1OC)CN(C(C)(C)CCc1ccc(F)cc1)C2 [compound 34]
9	CC(C)(CCc1ccc(F)cc1)N1Cc2ccc(F)cc2C1 [compound 35]
47	CC(C)(CCc1ccc(F)cc1)N1Cc2cc3c(cc2C1)OCO3 [compound 36]
14	CC(C)Oc1ccc(CCC(C)(C)N2Cc3ccc(F)cc3C2)cc1OC(C)C [compound 42]
29	COc1cc(CCC(C)(C)N2Cc3cccc(F)c3C2)ccc1OCCO [compound 44]
96	COc1cc(CCC(C)(C)N2Cc3ccc(F)cc3C2)ccc1OCCO [compound 45]
21	COc1cc(CCC(C)(C)N2Cc3cccc(F)c3C2)ccc1O [compound 53]
12	CC(C)(CCc1ccc(O)c(OC(F)(F)F)c1)N1Cc2cccc(F)c2C1 [compound 54]
34	CC(C)(CCc1ccc(O)c(OC(F)(F)F)c1)N1Cc2c(F)ccc(F)c2C1 [compound 55]
26	CN(C)C(=O)c1cccc2c1CN(C(C)(C)CCc1ccc(O)c(OC(F)(F)F)c1)C2 [compound 57]
8	CN(C)C(=O)c1cccc2c1CN(C(C)(C)CCc1ccc(O)c(OC(C)(C)C)c1)C2 [compound 59]
45	CC(C)(C)Oc1cc(CCC(C)(C)N2Cc3ccc(S(C)(=O)=O)cc3C2)ccc1O [compound 62]

Mouse liver microsomes, MLM t½ [min]	Compound
31	C[C@H](CCc1ccc(O)c(OC(C)(C)C)c1)N1Cc2ccc(S(C)(=O)=O)cc2C1 [compound 63]
52	COc1cc(CCC(C)(C)N2Cc3cccc(S(C)(=O)=O)c3C2)ccc1O [compound 64]
41	COc1cc(CC[C@@H](C)N2Cc3cccc(S(C)(=O)=O)c3C2)ccc1O [compound 65]
10	CC(C)(C)Oc1cc(CCC(C)(C)N2Cc3cccc(S(C)(=O)=O)c3C2)ccc1O [compound 66]
39	CC(C)(CCc1ccc(O)c(OC(F)(F)F)c1)N1Cc2cccc(S(C)(=O)=O)c2C1 [compound 67]
75	CC(C)Oc1cc(CC[C@@H](C)N2Cc3ccc(S(C)(=O)=O)cc3C2)ccc1O [compound 69]
79	CC(C)Oc1cc(CCC(C)(C)N2Cc3ccc(S(C)(=O)=O)cc3C2)ccc1O [compound 70]
21	CC(C)(C)Oc1cc(CCC(C)(C)N2Cc3c(F)ccc(F)c3C2)ccc1O [compound 74]
450	COc1cc(CCC(C)(C)N2Cc3cccc(C(=O)NCCN(C)C)c3C2)ccc1O [compound 78]
45	COc1cc(CCC(C)(C)N2Cc3cccc(C(=O)N4CCOCC4)c3C2)ccc1O [compound 80]
88	COc1cc(CCC(C)(C)N2Cc3cccc(C(=O)N(C)CCN(C)C)c3C2)ccc1O [compound 81]
27	COc1cc(CCC(C)(C)N2Cc3cccc(C(=O)N4CCN(C)CC4)c3C2)ccc1O [compound 82]
19	COCCN(C)C(=O)c1cccc2c1CN(C(C)(C)CCc1ccc(O)c(OC)c1)C2 [compound 86]
86	CC(C)COc1cc(CCC(C)(C)N2Cc3ccc(S(C)(=O)=O)cc3C2)ccc1O [compound 87]
28	CC(C)COc1cc(CCC(C)(C)N2Cc3cccc(F)c3C2)ccc1O [compound 88]
17	CC(C)COc1cc(CCC(C)(C)N2Cc3cccc(C(=O)N(C)C)c3C2)ccc1O [compound 89]
9	CC(C)COc1cc(CCC(C)(C)N2Cc3cccc(C(=O)N4CCOCC4)c3C2)ccc1O [compound 90]
6	CC(C)COc1cc(CCC(C)(C)N2Cc3cccc(C(=O)N4CCN(C)CC4)c3C2)ccc1O [compound 91]
7	CC(=O)N1CCN(C(=O)c2cccc3c2CN(C(C)(C)CCc2ccc(O)c(OCC(C)C)c2)C3)CC1 [compound 92]
5	CN1CCN(C(=O)c2cccc3c2CN(C(C)(C)CCc2ccc(O)c(OC(F)(F)F)c2)C3)CC1 [compound 93]
14	CC(C)(CCc1ccc(O)c(OC(F)(F)F)c1)N1Cc2cccc(C(=O)N3CCOCC3)c2C1 [compound 94]

The next lines start with the molecule.

Compound	Mouse liver microsomes, MLM t½ [min]
COc1cc(CC[C@@H](C)N2Cc3ccc(C(F)(F)F)cc3C2)ccc1O [compound 2]	28
COc1cc(CC[C@@H](C)N2Cc3cc(Cl)c(Cl)cc3C2)ccc1O [compound 3]	21
C[C@H](CCc1ccc(Cl)c(Cl)c1)N1Cc2ccc(C(F)(F)F)cc2C1 [compound 4]	40
C[C@H](CCc1ccc(Cl)c(Cl)c1)N1Cc2cc(Cl)c(Cl)cc2C1 [compound 5]	53
COc1cc(CC[C@@H](C)N2Cc3cc4c(cc3C2)OCO4)ccc1O [compound 6]	20
C[C@H](CCc1ccc(Cl)c(Cl)c1)N1Cc2cccc(F)c2C1 [compound 9]	12
C[C@H](CCc1ccc(Cl)c(Cl)c1)N1Cc2cc3c(cc2C1)OCO3 [compound 10]	8
COc1cc2c(cc1OC)CN([C@H](C)CCc1ccc(Cl)c(Cl)c1)C2 [compound 11]	61
C[C@H](CCc1ccc(Cl)c(Cl)c1)N1Cc2ccc(F)cc2C1.Cl [compound 12]	13
Cc1ccc2c(c1)CN([C@H](C)CCc1ccc(Cl)c(Cl)c1)C2 [compound 13]	3
COc1ccc2c(c1)CN([C@H](C)CCc1ccc(Cl)c(Cl)c1)C2.Cl [compound 15]	15
C[C@H](CCc1ccc(Cl)c(Cl)c1)N1Cc2cccc(Cl)c2C1.Cl [compound 16]	12
C[C@H](CCc1ccc(Cl)c(Cl)c1)N1Cc2ccc3ccccc3c2C1 [compound 19]	25
COc1cc2c(cc1OC)CN([C@@H](C)CCc1ccc(Cl)c(Cl)c1)C2 [compound 20]	43
C[C@H](CCc1ccc(F)cc1)N1Cc2cccc(F)c2C1 [compound 21]	7
C[C@H](CCc1ccc(F)cc1)N1Cc2ccc(F)cc2C1 [compound 22]	7
C[C@H](CCc1ccc(F)cc1)N1Cc2cc3c(cc2C1)OCO3 [compound 23]	5
C[C@H](CCc1ccc(O)c(OC(F)(F)F)c1)N1Cc2cc3c(cc2C1)OCO3 [compound 24]	5
CC(C)Oc1cc(CC[C@@H](C)N2Cc3cc4c(cc3C2)OCO4)ccc1O [compound 25]	4
C[C@H](CCc1ccc(O)c(OC(F)(F)F)c1)N1Cc2ccc(F)cc2C1 [compound 31]	6
CC(C)Oc1cc(CC[C@@H](C)N2Cc3ccc(F)cc3C2)ccc1O [compound 37]	5
CC(C)Oc1ccc(CC[C@@H](C)N2Cc3cc4c(cc3C2)OCO4)cc1OC(C)C [compound 40]	6
C[C@H](CCc1ccc(OC(=O)N(C)C)c(OC(F)(F)F)c1)N1Cc2cccc(F)c2C1 [compound 41]	9
C[C@H](CCc1ccc(OC(=O)N(C)C)c(OC(F)(F)F)c1)N1Cc2ccc(F)cc2C1 [compound 43]	5
COC[C@H](CCc1ccc(Cl)c(Cl)c1)N1Cc2ccc(F)cc2C1 [compound 46]	5
COc1cc(CCC(C)(C)N2Cc3cc4c(cc3C2)OCO4)ccc1OCCO [compound 47]	91
COc1cc(CCC(C)(C)N2Cc3ccc(F)cc3C2)ccc1OC(=O)N(C)C [compound 50]	33
COc1cc(CC[C@@H](C)N2Cc3cccc(F)c3C2)ccc1OCCO [compound 51]	66
COc1cc(CC[C@@H](C)N2Cc3cc4c(cc3C2)OCO4)ccc1OCCO [compound 52]	97
